According to PubChem BioAssay AID296 (DTP/NCI, 2004):
Several values for one entry are separate records, joined by “and”; a condition that tells them apart may be missing. Equal entries are not always repeated. Inconclusive results are not listed.

Tested on: MX-1 breast xenograft, nude mice, tumor weight T/C
Test: NCI In Vivo Anticancer Drug Screen. Data for tumor model Human Mammary Carcinoma MX-1 Xenograft (intrarenal inoculation) in NU/NU Swiss (nude) mice
Conditions: endpoint: mean tumor weight change, higher = larger tumour
Method: The antitumor activity of compounds was measured in mice bearing transplantable tumors. Survival or tumor size were measured and the results are expressed as the measurement made in the treated group (T) divided by the measurement made in the vehicle treated control group (C). The tumor model used in this assay is Human Mammary Carcinoma MX-1 Xenograft (intrarenal inoculation) in NU/NU Swiss (nude) mice

[1] = dose: 20.0 mg/kg/injection, schedule: Q04DX003 (sc), vehicle: Klucel (hydroxypropylcellulose) (HPC)
[2] = dose: 400.0 mg/kg/injection, schedule: Q04DX003 (sc), vehicle: saline with Tween-80
[3] = dose: 800.0 mg/kg/injection, schedule: Q04DX003 (sc), vehicle: saline with Tween-80
[4] = dose: 300.0 mg/kg/injection, schedule: Q04DX003 (sc), vehicle: Klucel (hydroxypropylcellulose) (HPC)
[5] = dose: 600.0 mg/kg/injection, schedule: Q04DX003 (sc), vehicle: Klucel (hydroxypropylcellulose) (HPC)
[6] = dose: 1200.0 mg/kg/injection, schedule: Q04DX003 (sc), vehicle: Klucel (hydroxypropylcellulose) (HPC)
[7] = dose: 2400.0 mg/kg/injection, schedule: Q04DX003 (sc), vehicle: Klucel (hydroxypropylcellulose) (HPC)
[8] = dose: 100.0 mg/kg/injection, schedule: Q01DX010 (sc), vehicle: Klucel (hydroxypropylcellulose) (HPC)
[9] = dose: 100.0 mg/kg/injection, schedule: Q04DX003 (sc), vehicle: saline

With `c1ccc2c(NCCCCCCNc3c4ccccc4nc4ccccc34)c3ccccc3nc2c1` the T/C (dose: 10.0 mg/kg/injection, schedule: Q01DX010 (sc), vehicle: Klucel (hydroxypropylcellulose) (HPC)) was 87 % of control, the T/C (dose: 10.0 mg/kg/injection, schedule: Q04DX003 (sc), vehicle: Klucel (hydroxypropylcellulose) (HPC)) was 297 % of control and the T/C (dose: 20.0 mg/kg/injection, schedule: Q01DX010 (sc), vehicle: Klucel (hydroxypropylcellulose) (HPC)) was 58 % of control. For the same compound, the T/C [1] was 241 % of control, the T/C (dose: 40.0 mg/kg/injection, schedule: Q04DX003 (sc), vehicle: Klucel (hydroxypropylcellulose) (HPC)) was 322 % of control and the T/C (dose: 80.0 mg/kg/injection, schedule: Q04DX003 (sc), vehicle: Klucel (hydroxypropylcellulose) (HPC)) was 199 % of control.
For `O=C(O)C1Cc2nc[nH]c2CN1CO` (stereo not given), the T/C (dose: 100.0 mg/kg/injection, schedule: Q04DX003 (sc), vehicle: saline with Tween-80) was 113 % of control, the T/C (dose: 200.0 mg/kg/injection, schedule: Q04DX003 (sc), vehicle: saline with Tween-80) was 113 % of control and the T/C [2] was 80 % of control. For the same compound, the T/C [3] was 99 % of control.
In the case of `CN(C)C(=O)SC1=C(c2c(Cl)cccc2Cl)C(=O)c2ccccc21`, the T/C [4] is reported as 76 % of control, the T/C [5] is reported as 65 % of control and the T/C [6] is reported as 57 % of control. For the same compound, the T/C [7] was 67 % of control.
In the case of `O=C1C(=O)c2cccnc2-c2ncccc21`, the T/C [1] is reported as 60 % of control.
For `CC[C@@]1(O)C(=O)OCc2c1cc1n(c2=O)Cc2cc3cc(O)ccc3nc2-1`, the T/C (dose: 8.0 mg/kg/injection, schedule: Q04DX003 (sc), vehicle: saline) was -98 % of control, the T/C (dose: 16.0 mg/kg/injection, schedule: Q04DX003 (sc), vehicle: saline) was -100 % of control and the T/C (dose: 32.0 mg/kg/injection, schedule: Q04DX003 (sc), vehicle: saline) was -100 % of control. For the same compound, the T/C (dose: 32.0 mg/kg/injection, schedule: Q04DX003 (sc), vehicle: suspension in saline) was -100 % of control, the T/C (dose: 64.0 mg/kg/injection, schedule: Q04DX003 (sc), vehicle: saline) was -100 % of control and the T/C (dose: 64.0 mg/kg/injection, schedule: Q04DX003 (sc), vehicle: suspension in saline) was -100 % of control. For the same compound, the T/C (dose: 128.0 mg/kg/injection, schedule: Q04DX003 (sc), vehicle: suspension in saline) was -100 % of control.
In the case of `COC(=O)Nc1nc2ccc(SC)cc2c(=O)[nH]1`, the T/C (dose: 150.0 mg/kg/injection, schedule: Q04DX003 (sc), vehicle: Klucel (hydroxypropylcellulose) (HPC)) is reported as 83 % of control, the T/C [4] is reported as 116 % of control and the T/C [5] is reported as 92 % of control. For the same compound, the T/C [6] was 86 % of control.
In the case of `O=C1NC(=O)C2C3C=CC(C12)C1C2C(=O)NC(=O)C2C31` (stereo not given), the T/C [2] is reported as 68 % of control and the T/C [3] is reported as 57 % of control.
With `O=CC(S)CO` (stereo not given) the T/C (dose: 100.0 mg/kg/injection, schedule: Q04DX003 (sc), vehicle: suspension in saline) was 151 % of control.
In the case of `O=C(O)C1CC(c2ccccc2)=NN1c1ccccc1` (stereo not given), the T/C (dose: 200.0 mg/kg/injection, schedule: Q04DX003 (sc), vehicle: water) is reported as 72 % of control and the T/C (dose: 400.0 mg/kg/injection, schedule: Q04DX003 (sc), vehicle: water) is reported as 72 % of control.
In the case of `O=C(O)CCCCCCCC(=O)O`, the T/C (dose: 300.0 mg/kg/injection, schedule: Q04DX003 (sc), vehicle: distilled water + Tween-80) is reported as 151 % of control, the T/C (dose: 600.0 mg/kg/injection, schedule: Q04DX003 (sc), vehicle: distilled water + Tween-80) is reported as 150 % of control and the T/C (dose: 1200.0 mg/kg/injection, schedule: Q04DX003 (sc), vehicle: distilled water + Tween-80) is reported as 80 % of control.
For `CC(=O)NC(CCc1ccc(Cl)c(Cl)c1)c1cccc(O)c(=O)c1` (stereo not given), the T/C (dose: 50.0 mg/kg/injection, schedule: Q04DX003 (sc), vehicle: Klucel (hydroxypropylcellulose) (HPC)) was 95 % of control, the T/C (dose: 100.0 mg/kg/injection, schedule: Q04DX003 (sc), vehicle: Klucel (hydroxypropylcellulose) (HPC)) was 69 % of control and the T/C (dose: 200.0 mg/kg/injection, schedule: Q04DX003 (sc), vehicle: Klucel (hydroxypropylcellulose) (HPC)) was 90 % of control. For the same compound, the T/C (dose: 400.0 mg/kg/injection, schedule: Q04DX003 (sc), vehicle: Klucel (hydroxypropylcellulose) (HPC)) was 119 % of control.
In the case of `C[PH+](C)C.C[PH+](C)C.[Au]`, the T/C (dose: 5.0 mg/kg/injection, schedule: Q04DX003 (sc), vehicle: suspension in saline) is reported as 157 % of control, the T/C (dose: 10.0 mg/kg/injection, schedule: Q04DX003 (sc), vehicle: suspension in saline) is reported as 156 % of control and the T/C (dose: 20.0 mg/kg/injection, schedule: Q04DX003 (sc), vehicle: suspension in saline) is reported as 160 % of control.
For `CN(C)c1nc(N(C)C)nc(N(C)C)n1`, the T/C (dose: 25.0 mg/kg/injection, schedule: Q01DX010 (sc), vehicle: Klucel (hydroxypropylcellulose) (HPC)) was 5 % of control, the T/C (dose: 50.0 mg/kg/injection, schedule: Q01DX010 (sc), vehicle: Klucel (hydroxypropylcellulose) (HPC)) was 21 % of control and the T/C [8] was -82 % of control. For the same compound, the T/C (dose: 600.0 mg/kg/injection, schedule: Q04DX003 (sc), vehicle: saline with Tween-80) was -87 % of control and -100 % of control.
With `ClCC[N+]12CC[N+](CCCl)(CC1)C2` the T/C (dose: 3.12 mg/kg/injection, schedule: Q01DX010 (sc), vehicle: saline with Tween-80) was 106 % of control, the T/C (dose: 6.25 mg/kg/injection, schedule: Q01DX010 (sc), vehicle: saline with Tween-80) was 69 % of control and the T/C (dose: 12.5 mg/kg/injection, schedule: Q01DX010 (sc), vehicle: saline with Tween-80) was 108 % of control. For the same compound, the T/C (dose: 25.0 mg/kg/injection, schedule: Q01DX010 (sc), vehicle: saline with Tween-80) was 96 % of control, the T/C (dose: 50.0 mg/kg/injection, schedule: Q01DX010 (sc), vehicle: water) was 39 % of control and 57 % of control and the T/C (dose: 75.0 mg/kg/injection, schedule: Q04DX003 (sc), vehicle: water) was 51 % of control. For the same compound, the T/C (dose: 100.0 mg/kg/injection, schedule: Q01DX010 (sc), vehicle: water) was 7 % of control and 13 % of control, the T/C (dose: 135.0 mg/kg/injection, schedule: Q04DX003 (sc), vehicle: water) was 45 % of control and 63 % of control and the T/C (dose: 150.0 mg/kg/injection, schedule: Q01DX010 (sc), vehicle: water) was 15 % of control. For the same compound, the T/C (dose: 150.0 mg/kg/injection, schedule: Q04DX003 (sc), vehicle: water) was 32 % of control, the T/C (dose: 200.0 mg/kg/injection, schedule: Q01DX010 (sc), vehicle: water) was -36 % of control and -32 % of control and the T/C (dose: 400.0 mg/kg/injection, schedule: Q01DX010 (sc), vehicle: saline with Tween-80) was 5 % of control. For the same compound, the T/C (dose: 450.0 mg/kg/injection, schedule: Q04DX003 (sc), vehicle: water) was 12 % of control and 27 % of control.
In the case of `O=c1[nH]c(=O)n(C2CC(O)C(CO)O2)cc1Br` (stereo not given), the T/C [5] is reported as 91 % of control, the T/C [6] is reported as 80 % of control and the T/C [7] is reported as 59 % of control. For the same compound, the T/C (dose: 4800.0 mg/kg/injection, schedule: Q04DX003 (sc), vehicle: Klucel (hydroxypropylcellulose) (HPC)) was 27 % of control.
With `CN(C)N=Nc1ccc(S(N)(=O)=O)cc1` the T/C [8] was 75 % of control, the T/C (dose: 200.0 mg/kg/injection, schedule: Q01DX010 (sc), vehicle: Klucel (hydroxypropylcellulose) (HPC)) was 47 % of control and the T/C (dose: 400.0 mg/kg/injection, schedule: Q01DX010 (sc), vehicle: Klucel (hydroxypropylcellulose) (HPC)) was 42 % of control.
In the case of `CNc1nc(N(C)C)nc(N(C)C)n1`, the T/C (dose: 12.5 mg/kg/injection, schedule: Q04DX003 (sc), vehicle: water) is reported as 59 % of control, the T/C (dose: 25.0 mg/kg/injection, schedule: Q04DX003 (sc), vehicle: water) is reported as 60 % of control and the T/C (dose: 30.0 mg/kg/injection, schedule: Q01DX010 (sc), vehicle: water) is reported as 24 % of control. For the same compound, the T/C (dose: 50.0 mg/kg/injection, schedule: Q04DX003 (sc), vehicle: water) was 34 % of control, the T/C (dose: 60.0 mg/kg/injection, schedule: Q01DX010 (sc), vehicle: water) was 3 % of control and the T/C (dose: 100.0 mg/kg/injection, schedule: Q04DX003 (sc), vehicle: water) was 10 % of control. The T/C (dose: 120.0 mg/kg/injection, schedule: Q01DX010 (sc), vehicle: water) was -63 % of control.
In the case of `COc1ccc(C[C@H](N)C(=O)NC2C(CO)OC(n3cnc4c(N(C)C)ncnc43)C2O)cc1` (stereo not given in full), the T/C [9] is reported as 102 % of control and the T/C (dose: 200.0 mg/kg/injection, schedule: Q04DX003 (sc), vehicle: saline) is reported as 99 % of control.
For `C1CN(P2(N3CC3)=NP(N3CC3)(N3CC3)=NP(N3CC3)(N3CC3)=N2)CCO1` (stereo not given), the T/C (dose: 12.5 mg/kg/injection, schedule: Q04DX003 (sc), vehicle: saline) was 36 % of control, the T/C (dose: 25.0 mg/kg/injection, schedule: Q04DX003 (sc), vehicle: saline) was 9 % of control and the T/C (dose: 50.0 mg/kg/injection, schedule: Q04DX003 (sc), vehicle: saline) was -77 % of control and -68 % of control (2×). For the same compound, the T/C [9] was -93 % of control.
With `c1csc(C[N+]23CN4CN(CN(C4)C2)C3)c1` the T/C [9] was 108 % of control and the T/C (dose: 400.0 mg/kg/injection, schedule: Q04DX003 (sc), vehicle: saline) was 93 % of control.
